Data on one compound can be found in patent US5055470A, “Method of treatment of ischemia in brain” (Bristol-Myers Squibb Co., priority 1989, dated 1991).

The structures appear in SMILES notation.

The subject of assay [1] is NMDA-evoked release of acetylcholine, rat striatal brain tissue slices. Description: Antagonism of NMDA-evoked release of tritiated acetylcholine from striatal slices. In kind it is cell-based. Particulars: rat striatal slices preloaded with tritiated choline; 0.5 mM NMDA; 50 μM compound. As for the experimental part:
Slices of rat striatal brain tissue were preloaded with tritiated choline and the release of tritiated acetylcholine evoked by NMDA in the presence or absence of BMY 14802 hydrochloride is measured.

A further assay deals with hypoxia-induced death. Description: Protection against hypoxia-induced death (1-minute exposure to 100% nitrogen atmosphere). The format is in vivo. Particulars: rats. As for the experimental part: Groups of rats received either water or drug solution in various doses given i.p. at specified times prior to a 1-minute exposure to a 100% nitrogen atmosphere. This 1-minute nitrogen exposure is lethal within 10 minutes to all animals receiving only vehicle. A 25 mg/kg treatment given 15 minutes before nitrogen exposure protected 3 of 8 animals while giving 50 mg/kg protected all animals.

For the compound `OC(CCCN1CCN(c2ncc(F)cn2)CC1)c1ccc(F)cc1` (stereo not shown) [BMY 14802, 4-[4-(5-fluoro-2-pyrimidinyl)-1-piperazinyl]-1-(4-fluorophenyl)butanol], the “attenuation of acetylcholine release evoked by NMDA” value in assay [1] is on record as “significant attenuation”. Further, the “animals protected from hypoxia-induced death” value is 3 of 8 with hypoxia-induced death (25 mg/kg i.p. 15 minutes before nitrogen exposure); 4 of 8 in the assay with hypoxia-induced death (25 mg/kg i.p. 30 minutes before nitrogen exposure); “no protection” with hypoxia-induced death (25 mg/kg i.p. 60 minutes before nitrogen exposure); “all animals” in the assay with hypoxia-induced death (50 mg/kg i.p. 15 minutes before nitrogen exposure); 3 of 8 in the assay on hypoxia-induced death (50 mg/kg i.p. 30 minutes before nitrogen exposure); 2 of 8 in the assay on hypoxia-induced death (50 mg/kg i.p. 60 minutes before nitrogen exposure).
